Here are results for 23 compounds from EP3723745B1, “PHENOXY ACIDS FOR THE TREATMENT OF NEUROMUSCULAR DISORDERS” (NMD Pharma A/S, priority 2017, dated 2019).

One assay concerns the target T1, CIC-1 channels (Rattus norvegicus, UniProt P35524).
T1 construct: from tissue; host or cells: intact soleus muscle of 12-14-week old Wistar rats
T1 sequence (P35524 1-994): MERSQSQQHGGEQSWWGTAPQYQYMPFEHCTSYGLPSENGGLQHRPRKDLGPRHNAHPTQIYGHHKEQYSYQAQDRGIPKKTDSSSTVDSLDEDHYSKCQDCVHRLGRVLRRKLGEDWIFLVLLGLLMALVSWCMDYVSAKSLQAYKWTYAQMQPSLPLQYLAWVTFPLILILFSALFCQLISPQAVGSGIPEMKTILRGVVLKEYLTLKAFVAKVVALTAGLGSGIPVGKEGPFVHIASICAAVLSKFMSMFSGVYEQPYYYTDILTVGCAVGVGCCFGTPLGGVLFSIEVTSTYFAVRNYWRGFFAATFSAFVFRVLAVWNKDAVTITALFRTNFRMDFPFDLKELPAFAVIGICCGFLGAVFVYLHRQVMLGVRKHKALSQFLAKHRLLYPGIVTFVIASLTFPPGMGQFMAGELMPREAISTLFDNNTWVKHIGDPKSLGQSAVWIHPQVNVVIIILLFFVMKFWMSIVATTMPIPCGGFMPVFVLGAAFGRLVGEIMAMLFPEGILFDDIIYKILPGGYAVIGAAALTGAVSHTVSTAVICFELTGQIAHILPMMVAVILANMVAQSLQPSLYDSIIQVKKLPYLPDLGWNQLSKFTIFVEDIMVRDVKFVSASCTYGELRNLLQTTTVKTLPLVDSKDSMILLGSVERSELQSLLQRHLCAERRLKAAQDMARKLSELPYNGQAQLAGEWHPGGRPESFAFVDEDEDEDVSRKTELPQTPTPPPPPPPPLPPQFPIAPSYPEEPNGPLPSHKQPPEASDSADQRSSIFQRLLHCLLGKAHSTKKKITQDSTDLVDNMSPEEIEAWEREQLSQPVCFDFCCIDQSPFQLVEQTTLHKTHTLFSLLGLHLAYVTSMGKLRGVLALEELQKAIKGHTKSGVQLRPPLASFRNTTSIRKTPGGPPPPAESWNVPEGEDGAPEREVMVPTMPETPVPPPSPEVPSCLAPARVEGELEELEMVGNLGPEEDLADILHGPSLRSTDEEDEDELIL
The experiment in a line: Electrophysiological measurement of compound inhibition of CIC-1 in rat muscle (Gm, three micro-electrodes technique). It is filed as cell-based. The settings on record: reduction of Gm in fibres of whole rat soleus muscles, approx. 30°C; n = number of experiments. An excerpt:
Table 2: Inhibition of CIC-1 ion channel using compounds of the invention

The next assay relates to soleus muscles. The assay is described as follows: Measurement of force in an in vitro model: isolated rat nerve-muscle preparation with tubocurarine. The settings on record: for activation at 50 µM: Rattus norvegicus, 40 min, percentage of initial force restored after 40 mins with 50 µM test compound, tubocurarine (115 nM) for 90 mins, read-out: Point increase. As to the method:
Recovery of force is quantified as the percentage of the force prior to tubocurarine that is recovered by the compound.
The current invention relates to compounds that inhibit CIC-1 ion channels and increase muscle excitability and thereby improve muscle function in clinical conditions where muscle activation is failing. Such conditions result in loss of contractile function of skeletal muscle, weakness and excessive fatigue. In this series of experiments the compounds were tested for their ability to restore contractile function of isolated rat muscle when the neuromuscular transmission had been compromised akin to neuromuscular disorders.
Experimentally, soleus muscles from 4-5 wk old rats were isolated with the motor nerve remaining attached. The nerve-muscle preparations were mounted in experimental setups that enabled electrical stimulation of the motor nerve. Stimulation of the motor nerve led to activation of the muscle fibres and ensuing force production that was recorded.
After mounting the nerve-muscle preparation in the experimental setup, the contractile function of the muscle was initially assessed under the control conditions (Figure 2A). […] The experimental condition mimics the failing neuromuscular transmission in a range of neuromuscular disorders. After addition of tubocurarine the contractile force declined over the next 90 mins to 10-50 % of the control force. 50 µM of the test compound was then added and the contractile force recovered despite the continued presence of tubocurarine. To quantify the ability of the compound to restore force the percentage of the initial force that was restored was determined after 40 mins of compound exposure (Figure 2B) and the point increase is reported in Table 3. Table 3: Percentage increase of initial force that was restored using compounds of the invention

A further assay deals with T2, human CIC-1 channels (Homo sapiens, UniProt P35523).
T2 construct: host or cells: CHO cells constitutively expressing human ClC-1
T2 sequence (P35523 whole entry): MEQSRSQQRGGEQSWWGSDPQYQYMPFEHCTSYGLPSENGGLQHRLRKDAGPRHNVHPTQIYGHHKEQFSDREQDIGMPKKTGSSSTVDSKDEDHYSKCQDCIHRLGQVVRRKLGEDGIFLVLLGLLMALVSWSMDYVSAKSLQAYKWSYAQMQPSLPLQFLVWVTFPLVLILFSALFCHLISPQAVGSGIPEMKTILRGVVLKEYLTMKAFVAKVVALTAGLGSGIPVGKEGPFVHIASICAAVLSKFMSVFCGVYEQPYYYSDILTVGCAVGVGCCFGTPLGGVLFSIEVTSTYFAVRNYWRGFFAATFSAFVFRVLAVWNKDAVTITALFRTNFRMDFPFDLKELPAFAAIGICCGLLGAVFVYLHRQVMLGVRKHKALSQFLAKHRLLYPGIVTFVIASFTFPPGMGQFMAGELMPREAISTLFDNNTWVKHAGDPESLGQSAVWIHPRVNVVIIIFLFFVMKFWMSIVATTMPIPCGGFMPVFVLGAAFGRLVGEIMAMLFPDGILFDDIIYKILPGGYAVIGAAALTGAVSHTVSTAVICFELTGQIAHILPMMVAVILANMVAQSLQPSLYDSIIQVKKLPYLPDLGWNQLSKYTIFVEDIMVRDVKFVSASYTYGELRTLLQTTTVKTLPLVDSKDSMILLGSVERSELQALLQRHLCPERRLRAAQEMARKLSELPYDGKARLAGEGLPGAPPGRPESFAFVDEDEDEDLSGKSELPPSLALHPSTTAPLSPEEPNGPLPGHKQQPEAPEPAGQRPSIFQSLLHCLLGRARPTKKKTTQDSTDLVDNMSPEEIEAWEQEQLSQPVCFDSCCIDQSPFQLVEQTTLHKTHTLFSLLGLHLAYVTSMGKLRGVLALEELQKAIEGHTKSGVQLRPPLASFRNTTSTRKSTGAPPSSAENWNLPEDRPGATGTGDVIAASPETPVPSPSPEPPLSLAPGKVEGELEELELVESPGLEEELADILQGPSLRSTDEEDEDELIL
The experiment in a line: Automated patch-clamp on human CIC-1 expressed in CHO cells. It is filed as cell-based. The settings on record: difference in half activation voltage, compound added intracellularly vs control cell patches; positive shift = CIC-1 inhibition. As to the method: The investigatory goal of these experiments was to evaluate how compounds affect the open probability and current amplitude of human CIC-1 channels expressed in CHO cells. Experiments were performed using an automated patch clamp system that allowed high throughput testing of whole cell patches together with both intracellular and extracellular addition of compound.
Automated whole cell patch clamp experiments were performed with the Qpatch 16 system (Sophion Bioscience, Ballerup, Denmark) at room temperature. Data acquisition and analysis were performed in the Qassay software (ver. 5.6, Odense).
To evoke CIC-1 currents in whole cell patches, the membrane potential was initially stepped from a holding potential of -30 mV to +60 mV for 100 ms and then to various test voltages (sweeps) ranging from +120 mV to -140 mV in steps of 20 mV for 300 ms. To obtain tail currents, the membrane potential was stepped to -100 mV after each test voltage for 300 ms and then relaxed to -30 mV for 2 sec between sweeps (Figure 3). I/V relationships for whole cell instant and steady state current amplitudes were obtained by plotting average current densities at the beginning and at the end of the 300 ms step against the membrane potential (Figure 4).
In order to determine the relative overall open probability (P0), the instantaneous tail currents were normalized to the maximal tail current obtained following the most positive voltage step and plotted against the test voltage. Plots of normalized tail currents from each whole cell patch were then fitted to a Boltzmann function allowing determination of half activation voltages (V1/2, Figure 5).
For automated patch clamp experiments extracellular solutions contained: 2 mM CaCl2, 1 mM MgCl2, 10 mM HEPES, 4 mM KCI, 145 mM NaCl, 10 mM Glucose, pH adjusted to 7.4 with NaOH (2 M). Osmolality adjusted to -320 using sucrose.
Intracellular solutions contained: 80 mM CsF, 60 mM CsCI, 5/1 mM KOH/EGTA, 10 mM HEPES, 10 mM NaCl, pH adjusted to 7.2 with NaOH (2 M). Osmolality adjusted to -320 mOsm using sucrose.
Cells used in patch clamp experiments were Chinese hamster ovary cells (CHO) constitutively expressing human CIC-1 channels. The amino acid sequence encoded by the cDNA used to create this cell line was identical to the translated sequence for GenBank accession number NM_000083.2. Cells were produced by Charles River (Catalogue CT6175, Cleveland OH, USA) in a cryopreserved format. Experiments were performed on the cells directly after thawing (3 × 10^6 cells used in each experiment).
To evaluate the compound effect on CIC-1, when applied directly to the intracellular side of the cell membrane, the half activation voltage, V1/2, was determined from whole cell patches with compound added to the intracellular solution and then compared to V1/2 determined from control cell patches with only vehicle added to the intracellular solution. Additionally, the effect of extracellular added compound was evaluated by determine V1/2 and steady state current amplitudes before and after exchanging the extracellular solution to contain compound.
The difference in half activation voltage of CIC-1 channels, ΔV1/2, was determined as the difference between the cell patches treated intracellularly with compound and control cells patches and is reported in Table 4 below. A positive shift in ΔV1/2 is reflecting CIC-1 channel inhibition by the tested compound. P-values of <0.05 is considered significant. […]
For orientation: Patch clamp records ionic current or voltage across a cell membrane.

The EC50 is the concentration at which the effect is half-maximal. Read a high EC50 as weaker potency.

Compound `CC(C)[C@@H](Oc1ccc(Br)cc1F)C(=O)O` [Compound A-4, (2R)-2-(4-bromo-2-fluorophenoxy)-3-methylbutanoic acid] yielded an EC50 on CIC-1 channels of more than 80 µM.
As to `[2H]c1cc(Br)cc([2H])c1O[C@@H](C)C(=O)O` [Compound A-6, (2S)-2-[4-bromo(2,6-^2H2)phenoxy]propanoic acid], in the assay with soleus muscles, the activation at 50 µM turned out to be 44%. Besides, the ΔV1/2 on human CIC-1 channels came out at 13.0 mV.
As to `C[C@H](Oc1ccc(Br)cc1I)C(=O)O` [Compound A-8, (2S)-2-(4-bromo-2-iodophenoxy)propanoic acid], the ΔV1/2 at human CIC-1 channels worked out at 9.4 mV.
As for `O=C(O)[C@@H](Oc1ccc(Br)cc1F)C(F)F` [Compound A-9, (2R)-2-(4-bromo-2-fluorophenoxy)-3,3-difluoropropanoic acid], at human CIC-1 channels, the ΔV1/2 came out at 15.2 mV.
As for `O=C(O)[C@H](CF)Oc1ccc(Br)cc1F` [Compound A-19, (2R)-2-(4-bromo-2-fluorophenoxy)-3-fluoropropanoic acid], the “average force (AUC) relative to initial force” value in the assay on soleus muscles (50 µM compound added after 90 min incubation in tubocurarine, 3 muscles (Figure 2)) is “recovered”.
`O=C(O)[C@H](CF)Oc1ccc(Br)cc1` [Compound A-26, (2R)-2-(4-bromophenoxy)-3-fluoropropanoic acid] returned an EC50 at CIC-1 channels of 3.8 ± 0.8 µM. For the same compound, in the assay with soleus muscles, the activation at 50 µM is 39%. The ΔV1/2 on human CIC-1 channels was 19.7 mV.
For `C[C@@H](Oc1ccc(Br)cc1F)C(=O)O` [Compound A-28, (2R)-2-(4-bromo-2-fluorophenoxy)propanoi c acid], the activation at 50 µM in the assay with soleus muscles is -8%.
With `C[C@H](Oc1ccc(Cl)cc1F)C(=O)O` [Compound A-38, (2S)-2-(4-chloro-2-fluorophenoxy)propanoi c acid], the ΔV1/2 on human CIC-1 channels is 17.4 mV.
With `C[C@H](Oc1ccc(Br)cc1Br)C(=O)O` [Compound A-40, (2S)-2-(2,4-dibromophenoxy)propan oic acid], the response at CIC-1 channels was half-maximal at 4.2 ± 0.6 µM (EC50). Besides, the activation at 50 µM in the assay on soleus muscles was found to be 20%. In addition, the ΔV1/2 at human CIC-1 channels was 5.19 mV.
At CIC-1 channels, `COC(=O)[C@H](C)Oc1ccc(Cl)cc1` [Compound A-54, methyl (2S)-2-(4-chlorophenoxy)propano ate] yielded a concentration for a half-maximal effect (EC50) of 6.8 ± 1.3 µM.
In turn, `CC[C@H](Oc1ccc(Br)cc1F)C(=O)O` [Compound A-58, (2S)-2-(4-bromo-2-fluorophenoxy)butanoic acid] yielded an EC50 at CIC-1 channels of 6.3 ± 2.4 µM. For the same compound, in the assay on soleus muscles, the activation at 50 µM was determined as 44%. For the same compound, the ΔV1/2 at human CIC-1 channels was determined as 28.2 mV.
The like results for `C#CC[C@H](Oc1ccc(Br)cc1Br)C(=O)O` [Compound A-66, (2S)-2-(2,4-dibromophenoxy)pent-4-ynoic acid] were, in that order, 7.2 µM, 51% and 27.4 mV.
The like results for `C#CC[C@H](Oc1ccc(Br)cc1Cl)C(=O)O` [Compound A-67, (2S)-2-(4-bromo-2-chlorophenoxy)pent-4-ynoic acid] were, in that order, 9.4 ± 0.6 µM, 40% and 37.8 mV.
For `C#CC[C@H](Oc1ccc(Br)cc1F)C(=O)O` [Compound A-69, (2S)-2-(4-bromo-2-fluorophenoxy)pent-4-ynoic acid], at human CIC-1 channels, the ΔV1/2 came out at 32.6 mV.
For the compound `O=C(O)[C@@H](Oc1ccc(Br)cc1Cl)C1CCC1` [Compound A-71, (2S)-2-(4-bromo-2-chlorophenoxy)-2-cyclobutylacetic acid], the EC50 at CIC-1 channels was 10.1 ± 0.2 µM. For the same compound, in the assay with soleus muscles, the activation at 50 µM turned out to be 49%.
Taken in the same sequence, the figures for `CC(C)[C@H](Oc1ccc(Br)cc1Cl)C(=O)O` [Compound A-73, (2S)-2-(4-bromo-2-chlorophenoxy)-3-methylbutanoic acid] were 7.2 µM and 51%.
In the case of `[2H]CC([2H])[C@H](Oc1ccc(Br)cc1)C(=O)O` (stereo partly drawn) [Compound A-76, (2S)-2-(4-bromophenoxy)(3,4-^2H2)butanoic acid], the activation at 50 µM in the assay with soleus muscles came to 62%. Also, at human CIC-1 channels, the ΔV1/2 is on record as 26.2 mV.
As for `CC[C@H](Oc1ccc(Br)cc1Cl)C(=O)O` [Compound A-78, (2S)-2-(4-bromo-2-chlorophenoxy)butanoic acid], the EC50 on CIC-1 channels was found to be 7.6 ± 1.6 µM. In the assay on soleus muscles, the activation at 50 µM turned out to be 38%.
Regarding `[2H][C@@](CF)(Oc1ccc(Br)cc1)C(=O)O` [Compound A-82, (2R)-2-(4-bromophenoxy)-3-fluoro(2-^2H)propanoic acid], the activation at 50 µM in the assay on soleus muscles was found to be 48%. The ΔV1/2 at human CIC-1 channels came to 19.0 mV.
At CIC-1 channels, `O=C(O)[C@H](CCF)Oc1ccc(Br)cc1I` [Compound A-83, (2S)-2-(4-bromo-2-iodophenoxy)-4-fluorobutanoic acid] registered a half-maximal effective concentration (EC50) of 8 µM. The activation at 50 µM in the assay with soleus muscles was 35%.
With `O=C(O)[C@@H](Oc1ccc(Br)cc1F)C1CCC1` [Compound A-86, (2S)-2-(4-bromo-2-fluorophenoxy)-2-cyclobutylacetic acid], the EC50 on CIC-1 channels worked out at 8.9 ± 3.2 µM. For the same compound, in the assay on soleus muscles, the activation at 50 µM was found to be 45%.
Taken in the same sequence, the figures for `CC(C)[C@H](Oc1ccc(Br)cc1I)C(=O)O` [Compound A-88, (2S)-2-(4-bromo-2-iodophenoxy)-3-methylbutanoic acid] were 5.9 ± 1.6 µM and 55%.
For `CC[C@H](Oc1ccc(Br)cc1I)C(=O)O` [Compound A-90, (2S)-2-(4-bromo-2-iodophenoxy)butanoic acid], the concentration giving a half-maximal response (EC50) at CIC-1 channels came out at 2.3 µM. For the same compound, in the assay with soleus muscles, the activation at 50 µM was determined as 57%.
